These results are taken from US8889667B2 (Agios Pharmaceuticals, Inc, priority 2010, dated 2014).

Where only a bound is given, the exact number is not on record here.

The experiment concerns the target PKM2 (Homo sapiens, UniProt P14618). Nature of the experiment: PKM2 Assay (activation, LDH-coupled, absorbance at 340 nm). It is filed as biochemical. Summed up: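 Human PKM2 (50 ng/well) was preincubated with compound and coupling mix for 30 min at 4 °C without ADP. Reactions were then started with ADP (0.7 mM) alongside PEP 0.15 mM, NADH 180 μM and LDH, in Tris pH 7.5/KCl/MgCl2/DTT/BSA buffer. A340 was followed at 25 °C and activation reported as AC50.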

What is called AC50 is the concentration at which the activity in the assay is half-maximal. High values mean weaker potency, low ones greater potency.

PKM2, sequence (P14618 whole entry): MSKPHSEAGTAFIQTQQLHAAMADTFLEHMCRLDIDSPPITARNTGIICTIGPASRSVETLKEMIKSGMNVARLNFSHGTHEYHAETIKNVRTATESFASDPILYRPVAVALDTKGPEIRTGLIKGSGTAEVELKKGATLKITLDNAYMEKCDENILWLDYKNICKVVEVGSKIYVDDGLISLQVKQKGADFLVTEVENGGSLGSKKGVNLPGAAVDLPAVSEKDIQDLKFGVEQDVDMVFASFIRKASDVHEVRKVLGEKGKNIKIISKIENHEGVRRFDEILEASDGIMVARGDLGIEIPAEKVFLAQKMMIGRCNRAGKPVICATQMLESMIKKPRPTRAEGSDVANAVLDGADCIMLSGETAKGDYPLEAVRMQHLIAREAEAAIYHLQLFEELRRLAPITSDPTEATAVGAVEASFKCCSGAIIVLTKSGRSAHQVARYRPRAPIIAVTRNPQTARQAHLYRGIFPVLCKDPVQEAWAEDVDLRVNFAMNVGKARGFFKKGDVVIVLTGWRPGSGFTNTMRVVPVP

Compound `C[C@H]1CN(CC2CCCC2)CCN1C(=O)c1ccc(NS(=O)(=O)c2cccc3cccnc23)cc1Cl` [Compound 186, (S)—N-(3-chloro-4-(4-(cyclopentylmethyl)-2-methylpiperazine-1-carbonyl)phenyl)quinoline-8-sulfonamide] came in with a half-maximal activity concentration (AC50) (Table 4) of under 100 nM.
Still for that read-out and setting: the same measure for `C[C@H]1CN(Cc2ccc(F)cc2)CCN1C(=O)c1ccc(NS(=O)(=O)c2cccc3cccnc23)cc1Cl` [Compound 184, (S)—N-(3-chloro-4-(4-(4-fluorobenzyl)-2-methylpiperazine-1-carbonyl)phenyl)quinoline-8-sulfonamide]: 100 to 500 nM.
Under “Table 5”, `O=C(c1ccc(NS(=O)(=O)c2cccc3cccnc23)c(OC(F)(F)F)c1)N1CCN(Cc2cncc(Cl)c2)CC1` [Compound 367, N-(4-(4-((5-chloropyridin-3-yl)methyl)piperazine-1-carbonyl)-2-(trifluoromethoxy)phenyl)quinoline-8-sulfonamide] displayed an AC50 of 100 to 500 nM.
For `O=C(c1ccc(NS(=O)(=O)c2cccc3cccnc23)cc1)N1CC2CCC(C1)N2Cc1ccc(F)cc1` [Compound 219, N-(4-(8-(4-fluorobenzyl)-3,8-diazabicyclo[3.2.1]octane-3-carbonyl)phenyl)quinoline-8-sulfonamide], the AC50 (Table 4) lay in the range of 100 to 500 nM.
In turn, `O=C(c1cc(F)cc(F)c1)N1CCN(C(=O)c2ccc(NS(=O)(=O)c3cccc4cccnc34)c(OC(F)(F)F)c2)CC1` [Compound 326, N-(4-(4-(3,5-difluorobenzoyl)piperazine-1-carbonyl)-2-(trifluoromethoxy)phenyl)quinoline-8-sulfonamide] had a half-maximal activity concentration (AC50) (Table 5) of 100 to 500 nM.
`CC(c1ccc(F)c(F)c1F)N1CCN(C(=O)c2ccc(NS(=O)(=O)c3cccc4cccnc34)cc2)[C@@H](C)C1` (stereo partly shown) [Compound 173]: under “Table 4”, the AC50 was in the range of 100 to 500 nM.
With `O=C(c1ccc(NS(=O)(=O)c2cccc3cccnc23)c(OC(F)(F)F)c1)N1CCN(Cc2ccn[nH]2)CC1` [Compound 382, N-(4-(4-((1H-pyrazol-5-yl)methyl)piperazine-1-carbonyl)-2-(trifluoromethoxy)phenyl)quinoline-8-sulfonamide], the AC50 (Table 5) lay in the range of 100 to 500 nM.
The same measure, in the same setting: the same measure for `O=C(c1ccc(NS(=O)(=O)c2cccc3cccnc23)c(OC(F)(F)F)c1)N1CCN(Cc2ccncc2Cl)CC1` [Compound 307, N-(4-(4-((3-chloropyridin-4-yl)methyl)piperazine-1-carbonyl)-2-(trifluoromethoxy)phenyl)quinoline-8-sulfonamide]: 100 to 500 nM.
`C[C@@H]1CN(Cc2ccc(Cl)c(F)c2)CCN1C(=O)c1ccc(NS(=O)(=O)c2cccc3cccnc23)cc1` [Compound 125, (R)—N-(4-(4-(4-chloro-3-fluorobenzyl)-2-methylpiperazine-1-carbonyl)phenyl)quinoline-8-sulfonamide]: under “Table 4”, the half-maximal activity concentration (AC50) was under 100 nM.
`C[C@H]1CN(C(=O)O[C@@H]2CCOC2)CCN1C(=O)c1ccc(NS(=O)(=O)c2cccc3cccnc23)cc1` [Compound 166] returned an AC50 (Table 4) of 100 to 500 nM.
For `CC(c1cc(F)cc(F)c1)N1CCN(C(=O)c2ccc(NS(=O)(=O)c3cccc4cccnc34)cc2)CC1` (stereo not shown) [Compound 331, N-(4-(4-(1-(3,5-difluorophenyl)ethyl)piperazine-1-carbonyl)phenyl)quinoline-8-sulfonamide], the AC50 (Table 5) is under 100 nM.
On the same count and under the same terms, the same measure for `O=C(c1cnc(NS(=O)(=O)c2cccc3cccnc23)cn1)N1CCN(Cc2ccc(F)cc2)CC1` [Compound 452, N-(5-(4-(4-fluorobenzyl)piperazine-1-carbonyl)pyrazin-2-yl)quinoline-8-sulfonamide]: 1000 to 20000 nM; for `O=C(c1ccc(NS(=O)(=O)c2cccc3cccnc23)cc1)N1CCN(C(c2ccc(F)cc2)C(F)(F)F)CC1` (stereo not shown) [Compound 351, N-(4-(4-(2,2,2-trifluoro-1-(4-fluorophenyl)ethyl)piperazine-1-carbonyl)phenyl)quinoline-8-sulfonamide]: under 100 nM.
On to `C[C@@H]1CN(Cc2cc(F)c(F)cc2F)CCN1C(=O)c1ccc(NS(=O)(=O)c2cccc3cccnc23)cc1` [Compound 120, (R)—N-(4-(2-methyl-4-(2,4,5-trifluorobenzyl)piperazine-1-carbonyl)phenyl)quinoline-8-sulfonamide], for which the AC50 (Table 4) is under 100 nM.
For the compound `O=C(c1ccc(NS(=O)(=O)c2cccc3cccnc23)cc1)N1CCN(C(=O)c2cc(F)cc(F)c2)CC1` [Compound 345, N-(4-(4-(3,5-difluorobenzoyl)piperazine-1-carbonyl)phenyl)quinoline-8-sulfonamide], where the note is “Table 5”, the AC50 was 100 to 500 nM.
Turning to `C[C@H]1CN(C[C@@H]2CCOC2)CCN1C(=O)c1ccc(NS(=O)(=O)c2cccc3cccnc23)cc1` [Compound 209], the AC50 (Table 4) lay within 100 to 500 nM.
Under “Table 4”, `C[C@H]1CN(C(=O)c2ccc(NS(=O)(=O)c3cccc4cccnc34)cc2)CCN1C(=O)c1ccccn1` [Compound 100] displayed an AC50 of 100 to 500 nM.
`CC(c1c(F)ccc(F)c1F)N1CCN(C(=O)c2ccc(NS(=O)(=O)c3cccc4cccnc34)cc2)[C@@H](C)C1` (stereo partly drawn) [Compound 192, N-(4-((2S)-2-methyl-4-(1-(2,3,6-trifluorophenyl)ethyl)piperazine-1-carbonyl)phenyl)quinoline-8-sulfonamide]: for the setting “Table 4”, the AC50 was 100 to 500 nM.
`O=C(c1ccc(NS(=O)(=O)c2cccc3cccnc23)c(OC(F)(F)F)c1)N1CCN(Cc2ccc(F)c(F)c2)CC1` [Compound 378, N-(4-(4-(3,4-difluorobenzyl)piperazine-1-carbonyl)-2-(trifluoromethoxy)phenyl)quinoline-8-sulfonamide]: the AC50 (Table 5) fell in the range of 100 to 500 nM.
`O=C(c1ccc(NS(=O)(=O)c2cccc3cccnc23)cc1)N1CCN(C2(c3ccccc3)CC2)CC1` [Compound 330, N-(4-(4-(1-phenylcyclopropyl)piperazine-1-carbonyl)phenyl)quinoline-8-sulfonamide] displayed a half-maximal activity concentration (AC50) (Table 5) of under 100 nM.
Compound `O=C(c1ccc(NS(=O)(=O)c2cccc3cccnc23)cc1Cl)N1CCN(Cc2ccc(F)cc2)CC1` [Compound 431, N-(3-chloro-4-(4-(4-fluorobenzyl)piperazine-1-carbonyl)phenyl)quinoline-8-sulfonamide] yielded an AC50 (Table 5) of under 100 nM.
On the same count and under the same terms, then `O=C(c1ccc(NS(=O)(=O)c2cccc3cccnc23)cc1Cl)N1CCN(Cc2cc(F)c(F)cc2F)CC1` [Compound 433, N-(3-chloro-4-(4-(2,4,5-trifluorobenzyl)piperazine-1-carbonyl)phenyl)quinoline-8-sulfonamide], with under 100 nM.
For `CC[C@H]1CN(Cc2cc(F)cc(F)c2)CCN1C(=O)c1ccc(NS(=O)(=O)c2cccc3cccnc23)cc1` [Compound 136, (S)—N-(4-(4-(3,5-difluorobenzyl)-2-ethylpiperazine-1-carbonyl)phenyl)quinoline-8-sulfonamide], the AC50 (Table 4) is 100 to 500 nM.
Under “Table 5”, `O=C(c1ccc(NS(=O)(=O)c2cccc3cccnc23)cc1)N1CCN(C2(c3ccccc3)CCCCC2)CC1` [Compound 407, N-(4-(4-(1-phenylcyclohexyl)piperazine-1-carbonyl)phenyl)quinoline-8-sulfonamide] displayed an AC50 of under 100 nM.
For the compound `COc1cccc(OC)c1CN1CCN(C(=O)c2ccc(NS(=O)(=O)c3cccc4cccnc34)c(OC(F)(F)F)c2)CC1` [Compound 392, N-(4-(4-(2,6-dimethoxybenzyl)piperazine-1-carbonyl)-2-(trifluoromethoxy)phenyl)quinoline-8-sulfonamide], the AC50 (Table 5) was in the range of 500 to 1000 nM.
